Source: PubChem BioAssay AID179 (DTP/NCI, 2004)
Activity calls are given as the source filed them.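 The calls were made as follows: active = compounds giving half or more protection of infected cells from virus-caused growth loss, again on retest; inactive = the rest.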

System: CEM cells HIV-1 protection, formazan growth assay
Assay: NCI AIDS Antiviral Assay
Details: for IC50: measured here: growth of uninfected CEM cells
How it was run: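 Soluble formazan readout of cell growth; CEM cells ± HIV-1; 5 drug concs. ≥50% protection → retest; ≥50% again = moderately active; reproducible 100% = confirmed active.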

Question: How did the EC50 turn out when `CCOC(=O)C1(C(=O)OCC)C(C(C)(C)C)=C(C)c2ccccc21` was run?
Answer: The EC50 was greater than 50.1 µM.

Question: What about the IC50 of the same compound?
Answer: The IC50 was 20.4 µM.

Question: For `C1CCC2(CC1)C[N+]1(CCCC1)C1(CCC1)O2`, which EC50 is on record?
Answer: Its EC50 is greater than 200 µM.

Question: What about the IC50 of the same compound?
Answer: Its IC50 is greater than 200 µM.

Question: What does the source list for `O=C(Nc1ccc(Cl)cc1Cl)/C(Cl)=C1/Sc2ccccc2NC1=O`?
Answer: EC50: > 6.76 µM; IC50: > 6.76 µM

Question: How did the EC50 turn out when `COc1ccc(CN(Cc2ccccc2)c2ncccn2)cc1` was run?
Answer: Its EC50 is greater than 17 µM.

Question: What about the IC50 of the same compound?
Answer: The IC50 was greater than 17 µM.

Question: For `C[N+]1(C)C/C(=C/c2ccc(F)cc2)C(=O)/C(=C\c2ccc(F)cc2)C1`, which EC50 is on record?
Answer: Its EC50 is greater than 537 µM.

Question: And the IC50?
Answer: The IC50 was 97.7 µM.

Question: With `N#Cc1c(NC(=S)Nc2ccccc2)sc2c1CCCC2` as the compound, how does the EC50 read?
Answer: The EC50 was greater than 200 µM.

Question: What about the IC50 of the same compound?
Answer: Its IC50 is greater than 200 µM.

Question: Which EC50 does the source give for `C1=C(C2CCCC3[C@@H]4C[C@@H](CN23)C2CCCCN2C4)CCC2[C@H]3C[C@H](CN12)C1CCCCN1C3` (stereo not given in full) here?
Answer: Its EC50 is greater than 21.4 µM.

Question: And the IC50?
Answer: The IC50 was greater than 21.4 µM.

Question: Which results are given for `COC12C=CC(CC1)C1=C2C(=O)c2nc(C)c(C)nc2C1=O` (stereo not given)?
Answer: EC50: > 63.1 µM; IC50: 39.8 µM

Question: With `N#CC(C#N)=Cn1c(=S)[nH]c2ccc([N+](=O)[O-])cc21` as the compound, how does the EC50 read?
Answer: The EC50 was greater than 200 µM.

Question: What about the IC50 of the same compound?
Answer: Its IC50 is 89.1 µM.

Question: What does the source list for `COc1ccc(N)c(N2C(=O)c3ccccc3C2=O)c1`?
Answer: EC50: > 200 µM; IC50: > 200 µM

Question: Which results are given for `CCOC(=O)C1(C#N)C(C#N)(C#N)C12CCCCC2` (stereo not given) (tested in a mixture with another compound)?
Answer: EC50: > 200 µM; IC50: 6.03 µM

Question: `CC(C)N1CCCOC(c2ccc([N+](=O)[O-])cc2)O1` (stereo not given) was tested. Which EC50 did it give?
Answer: The EC50 was greater than 200 µM.

Question: And the IC50?
Answer: Its IC50 is 112 µM.

Question: `CCOC(=O)c1c(SCc2ccccc2)nc2c3ccccc3ccn12` was tested. Which EC50 did it give?
Answer: Its EC50 is greater than 151 µM.

Question: And the IC50?
Answer: Its IC50 is greater than 151 µM.

Question: For `S=C(N/N=C(\C(=N/NC(=S)N1CCCCC1)c1ccccn1)c1ccccn1)N1CCCCC1`, which EC50 is on record?
Answer: The EC50 was greater than 200 µM.

Question: What about the IC50 of the same compound?
Answer: Its IC50 is 39.8 µM.

Question: Which outcome does the source give for `Cc1cc(N=Nc2cc(S(=O)(=O)O)c(N)cc2N)ccc1N=Nc1ccc2cc(S(=O)(=O)O)cc(S(=O)(=O)O)c2c1` here?
Answer: The outcome was “inactive”.

Question: `O=C1N=C2Sc3ccc4ccccc4c3N2C1=O` was tested. Which EC50 did it give?
Answer: The EC50 was greater than 355 µM.

Question: And the IC50?
Answer: Its IC50 is 182 µM.

Question: `CN1CCN(C)C12C=CC=CC21CC1` was tested. Which outcome did it give?
Answer: Its outcome is “inactive”.

Question: Which EC50 does the source give for `O=C1NC(=S)NC1C(Cc1ccccc1)c1ccccc1` (stereo not given) here?
Answer: Its EC50 is greater than 200 µM.

Question: What about the IC50 of the same compound?
Answer: The IC50 was 85.1 µM.

Question: How did the outcome turn out when `CCC1CN2CCC3(C(=O)Nc4ccccc43)C2CC1/C(=C/OC)C(=O)OC` (stereo not given) was run?
Answer: Its outcome is “inactive”.

Question: `Fc1ccc(-c2sc(-c3cccs3)cc2Cc2cccs2)cc1` was tested. Which outcome did it give?
Answer: The outcome was “inactive”.

Question: What does the source list for `CCCCCCCCCCCCCCCc1ncc(C)[nH]1`?
Answer: EC50: > 24.5 µM; IC50: > 24.5 µM

Question: For `CC1(C)N=[N+]([O-])C1(C)C`, which EC50 is on record?
Answer: Its EC50 is greater than 200 µM.

Question: And the IC50?
Answer: Its IC50 is greater than 200 µM.

Question: What does the source list for `CC(C)/C=N\N1C(N)=C(C#N)C(C#N)(C#N)C1C(C)C` (stereo not given)?
Answer: EC50: > 200 µM; IC50: 41.7 µM

Question: `COC(=O)C=C(c1cc(Cl)c(OC)c(C(=O)OC)c1)c1cc(Cl)c(OC)c(C(=O)OC)c1` was tested. Which EC50 did it give?
Answer: Its EC50 is greater than 200 µM.

Question: What about the IC50 of the same compound?
Answer: The IC50 was 17.8 µM.

Question: What does the source list for `CCOC(=O)c1ccccc1NN1C(=O)C=CC1=O`?
Answer: EC50: > 347 µM; IC50: 52.5 µM

Question: For `Nc1nc(SCC(=O)c2ccccc2)nc2nc3c(c(-c4ccccc4)c12)CCCC3`, which EC50 is on record?
Answer: Its EC50 is greater than 100 µM.

Question: And the IC50?
Answer: Its IC50 is 66.1 µM.

Question: Which results are given for `O=C(CC1CCN(C(=O)c2ccccc2)C(Cc2c[nH]c3ccccc23)C1O)N1CCCC1` (stereo not given)?
Answer: EC50: > 200 µM; IC50: > 200 µM

Question: Which EC50 does the source give for `CCOP(=O)(OCC)C(N)c1ccc(OC)cc1` (stereo not given) here?
Answer: Its EC50 is greater than 813 µM.

Question: And the IC50?
Answer: Its IC50 is greater than 813 µM.

Question: `CCSCN(C)c1nc(N(C)C)nc(N(C)C)n1` was tested. Which EC50 did it give?
Answer: The EC50 was greater than 200 µM.

Question: And the IC50?
Answer: The IC50 was 8.51 µM.

Question: Which EC50 does the source give for `Cc1ccc(Cl)c(-c2nc3cc(Cl)c(Cl)cc3[nH]2)c1` here?
Answer: The EC50 was greater than 60.3 µM.

Question: And the IC50?
Answer: The IC50 was greater than 60.3 µM.

Question: With `CCOC(=O)c1[nH]c2cccc3c2c1CC[C@H](NC(=O)C(F)(F)F)C3=O` as the compound, how does the EC50 read?
Answer: Its EC50 is greater than 200 µM.

Question: And the IC50?
Answer: Its IC50 is greater than 200 µM.

Question: Which EC50 does the source give for `COC(=O)CCCc1ccc2c(c1)CCC2` here?
Answer: Its EC50 is greater than 200 µM.

Question: What about the IC50 of the same compound?
Answer: The IC50 was greater than 200 µM.

Question: With `CN1C(=Nc2ccccc2)SC1=Nc1ccccc1` as the compound, how does the outcome read?
Answer: The outcome was “inactive”.

Question: For `CCNCCNC(=O)c1ccc(I)cc1`, which outcome is on record?
Answer: The outcome was “inactive”.

Question: With `CC12CCC(=O)CC13CCC2OC(O)C3` (stereo not given) as the compound, how does the outcome read?
Answer: The outcome was “inactive”.

Question: `N#Cc1c(NC(=S)NC(=O)c2ccccc2)nc2c(c1-c1ccccc1)CCC2` was tested. Which EC50 did it give?
Answer: Its EC50 is greater than 100 µM.

Question: And the IC50?
Answer: Its IC50 is 93.3 µM.

Question: Which results are given for `CCN(CC)CCCNc1ccc([N+](=O)[O-])c2nc3ccccc3c(N)c12`?
Answer: EC50: > 200 µM; IC50: 0.214 µM

Question: For `CC(=O)OCC1OC(OCCCOP(=S)(OCCC#N)OCC2OC(n3ccc(N)nc3=O)C(OC(=O)c3ccccc3)C2OC(=O)c2ccccc2)C(OC(C)=O)C(OC(C)=O)C1OC(C)=O` (stereo not given), which EC50 is on record?
Answer: The EC50 was greater than 100 µM.

Question: And the IC50?
Answer: The IC50 was greater than 100 µM.

Question: Which results are given for `CCOC(=O)C1OC1C1CCCc2ccccc21` (stereo not given)?
Answer: EC50: > 200 µM; IC50: > 100 µM

Question: For `COc1cc(O)c2c(c1)C(=O)c1cc3c(c(O)c1C2=O)C(OC1OC(C)C(O)C(O)C1OC)C(OC)C(C)(O)C3=O` (stereo not given), which EC50 is on record?
Answer: The EC50 was greater than 200 µM.

Question: What about the IC50 of the same compound?
Answer: Its IC50 is 3.16 µM.

Question: How did the EC50 turn out when `Cn1c2ccccc2c2c(=O)[nH]c(=O)[nH]c21` was run?
Answer: The EC50 was greater than 200 µM.

Question: What about the IC50 of the same compound?
Answer: The IC50 was greater than 200 µM.

Question: Which EC50 does the source give for `CCN(CC)CCOCC1CCCN2CCCCC12` (stereo not given) here?
Answer: The EC50 was greater than 200 µM.

Question: What about the IC50 of the same compound?
Answer: Its IC50 is greater than 200 µM.

Question: Which outcome does the source give for `COc1ccc(N/N=C(\CCN(C)C)c2ccccc2)cc1` here?
Answer: The outcome was “inactive”.

Question: Which results are given for `COc1cc([C@@H]2C3C(=O)c4ccccc4C3[C@@H](c3cc(OC)c(OC)c(OC)c3)C23Cc2ccccc2C3=O)cc(OC)c1OC` (stereo not given in full)?
Answer: EC50: > 200 µM; IC50: 31.6 µM

Question: Which outcome does the source give for `O=C1NC2=C(CCCC/C2=N\O)C12CCCCC2` here?
Answer: The outcome was “inactive”.

Question: Which results are given for `O=C1CC2(c3ccccc3)CCCCC2=NN1` (stereo not given)?
Answer: EC50: > 200 µM; IC50: > 200 µM

Question: `CC1(C)NC(=O)[C@]2(C[C@@H](O)C=C2CO)O1` was tested. Which EC50 did it give?
Answer: The EC50 was greater than 200 µM.

Question: And the IC50?
Answer: Its IC50 is greater than 200 µM.
